Source: patent publication US9199885B2, “Utilization of iron salts to stabilize and/or disinfect biosolids” (The Administrators of the Tulane Educational Fund, priority 2013, dated 2015)

How the values were obtained:
[1] = ORP of treated heat-dried biosolids; type: physicochemical; settings: post treatment
Description: After the heat drying process, the product was tested for total solids contents. Based on the results, a 2% solution of said product in effluent was made and poured into 600 mL narrow neck glass bottles, along with a seeding of 3000 mg/L for each bottle. The system was then sealed and set up in a 20° C. water bath for real time monitoring on oxygen uptake for 96 hours. pH and ORP values were assessed at the beginning and the end of the tests.

[2] = system: return activated sludge (RAS) seed microorganisms; assay: Aerobic respirometry: specific oxygen uptake rate (SOUR) of iron-dosed, heat-dried biosolids; settings: for time until SOUR reached below the stable criteria requirement: 1.5% ferrate as iron by TS
Description: Thickened sewage sludge was poured into ster[…] & Bird B-Ker polycarbonate jars with a sampling port for flash mixing and flocculation in amounts of 1 L to 2 L. The ferric chloride/ferrate dose was delivered by syringe to the jar test beakers. The ferric chloride dose was calculated by obtaining the total solids content of the sludge sample first and taking 2% of the result. The ferrate dose was calculated after computing the final synthesized concentration of ferrate in buffer solution. Both the ferrate and ferric chloride doses were based on mass rather than volume. The ferrate solution strength was calculated based on mass instead of volume to minimize errors in the dose calculations; these errors are associated with off-gases from the ferrate solution changing the volume of ferrate within the syringe. Of the six jars, one jar of raw sludge served as the control and five jars were used to test various dosages. The ferric chloride was added first while the sludge samples were mixed at a speed of 300 rpm; after thorough mixing (about 10 minutes), the ferrate was added and the mixture was mixed at 300 rpm for about 10 minutes until thoroughly mixed. Well-mixed sludge was then transferred into centrifuge tubes and centrifuged, and then the settled solids were collected and spread on a baking pan and heat dried for about 30 minutes. Batch respirometer tests were conducted by dosing microbial culture with an amount of organic chemical or wastewater followed by monitoring the reactions through measurement of oxygen uptake in aerobic tests or gas production in anoxic and methanogenic tests. Batch tests are transient, non-steady-state reactions in which both substrate and biomass concentrations change throughout the biodegradation reaction. The procedures generally involve the following steps. A sample of wastewater or solution of test chemicals is placed in each of a number of respirometer vessels. Nutrients and trace minerals are added in amounts sufficient to support biological growth and a buffer is added to maintain the pH within an acceptable range. A seed culture is added to provide microorganisms that can degrade the organic constituents in the test samples. A caustic scrubber is suspended within the headspace of the reaction vessel to absorb carbon dioxide (only in instruments using headspace oxygen transfer), and chemicals are added to inhibit nitrification in cases where only aerobic carbonaceous oxidation reactions are to be monitored. The reaction vessels are attached to a device suitable for measuring oxygen uptake or gas production, and oxygen uptake or gas production is measured over time periods ranging from a few minutes to 90 days, depending on the test objectives. The aerobic conditions of respirometry assessments were designed to simulate the scenario that the treated biosolids were fully seeded with an unlimited oxygen supply. The anaerobic conditions mimicked fully seeded biosolids without oxygen. The return activated sludge from the New Orleans' POTW was used as seed for its already acclimated microorganisms. For the same reasons, the effluent was selected as the dilution water to increased moisture content. After the heat drying process, the product was tested for total solids contents. […] The system was then sealed and set up in a 20° C. water bath for real time monitoring on oxygen uptake for 96 hours. pH and ORP values were assessed at the beginning and the end of the tests. The sludge was thickened to achieve a 5% solids content level. After the addition of ferric chloride, ferrate or both followed by centrifugation, the sludge cake was placed in an oven at 80° C. for 30 minutes to mimic the heat drying process. The dried sludge was then tested for stability by adding 98%-99% of moisture content. There were three exogenous variables: buffer, feed and seed. The buffer was 1.5M KH2PO4 at pH 7.0. […]

[3] = system: biomass; settings: endogenous respiration, no added oxygen or substrate; cited from earlier work

SMILES | ORP levels in the biosolids [1] | stabilization (SOUR) ([2]; 1.3% ferrate as the iron dose, buffer, seed and feed in respirometer) | time until SOUR reached below the stable criteria requirement ([2]; moisture content 98%) [h] | time until SOUR reached below the stable criteria requirement ([2]; moisture content 99%) [h] | stabilization (SOUR) ([2]; ferrate dosages 1.2% to 4.9%, not neutralized with buffer (pH higher than 10), acetate and seed added) | stimulation of biomass during dosing [3] | stability of heat-dried biosolids ([2]; 1.4% to 1.5% ferric chloride, seeded) | SOUR ([2]; 1.4% to 1.5% ferric chloride, seeded, for 5 to 10 hours) [mg O2/h/g TS] | time heat-dried biosolids observed to be stable ([2]; dose larger than 2.3% ferric chloride, seeded) | stability of heat-dried biosolids ([2]; ferric chloride-treated, seed not added) | stability of heat-dried biosolids ([2]; with addition of seed, ferric chloride doses less than 2.3%)
[O]=[Fe](=[O])([O-])[O-] [ferrate] | around 0.1 V | no stabilization | 5 | 9 | stable biosolids | – | – | – | – | – | –
[Cl][Fe]([Cl])[Cl] [ferric chloride] | around 0.1 V | – | – | – | – | did not stimulate the biomass | not stable | > 1.5 | at least 2 days | stable | not stable
O=S(=O)([O-])[O-].[Fe+2] [ferrous sulphate] | – | – | – | – | – | did not stimulate the biomass | – | – | – | – | –
